Assay results taken from ChEMBL document CHEMBL1150889, “Thiomycalolides: new cytotoxic trisoxazole-containing macrolides isolated from a marine sponge Mycale sp” (J Nat Prod, 1998).
Values after ≈ are worked out from the molar mass of the structure shown.

Test system: P388
Experiment: Cytotoxicity against mouse P388 cells
Format: functional, cell-based

| SMILES | IC50 |
| --- | --- |
| COCC(OC)C(=O)OC(CCC(C)C(CC1OC(=O)CC(O)CC(SC[C@H](NC(=O)CC[C@H](N)C(=O)O)C(=O)NCC(=O)O)CC(=O)C(C)C(OC)c2coc(n2)-c2coc(n2)-c2coc(n2)/C=C/CC(OC)C1C)OC)C(C)C(OC(C)=O)C(C)/C=C/N(C)C=O (some centres not stated) [THIOMYCALOLIDE B] | 0.018 µg/mL (≈ 0.0135 µM) |
| COC(CC1OC(=O)CC(O)CC(SC[C@H](NC(=O)CC[C@H](N)C(=O)O)C(=O)NCC(=O)O)CC(=O)C(C)C(OC)c2coc(n2)-c2coc(n2)-c2coc(n2)/C=C/CC(OC)C1C)C(C)CCC(=O)C(C)C(OC(C)=O)C(C)/C=C/N(C)C=O (some centres not stated) [THIOMYCALOLIDE A] | 0.018 µg/mL (≈ 0.0148 µM) |
